pIC50: −log10 of the molar value.

The target of the first assay is T1, human CDK9/CyclinT kinase complex (Homo sapiens, UniProt P50750).
T1 construct: purchased Proqinase 0371-0345-1
T1 sequence (P50750 whole entry): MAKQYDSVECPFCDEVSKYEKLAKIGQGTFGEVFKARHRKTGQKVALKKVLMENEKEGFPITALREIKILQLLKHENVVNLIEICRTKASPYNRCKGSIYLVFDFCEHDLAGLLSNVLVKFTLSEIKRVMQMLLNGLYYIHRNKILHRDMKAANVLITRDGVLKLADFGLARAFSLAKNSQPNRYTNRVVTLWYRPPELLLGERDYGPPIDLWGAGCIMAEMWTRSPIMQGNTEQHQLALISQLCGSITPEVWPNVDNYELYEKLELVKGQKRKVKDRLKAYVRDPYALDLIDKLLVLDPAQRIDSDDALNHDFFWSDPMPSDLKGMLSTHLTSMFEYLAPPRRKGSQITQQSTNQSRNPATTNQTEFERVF
T1 sequence (O60563 whole entry partner): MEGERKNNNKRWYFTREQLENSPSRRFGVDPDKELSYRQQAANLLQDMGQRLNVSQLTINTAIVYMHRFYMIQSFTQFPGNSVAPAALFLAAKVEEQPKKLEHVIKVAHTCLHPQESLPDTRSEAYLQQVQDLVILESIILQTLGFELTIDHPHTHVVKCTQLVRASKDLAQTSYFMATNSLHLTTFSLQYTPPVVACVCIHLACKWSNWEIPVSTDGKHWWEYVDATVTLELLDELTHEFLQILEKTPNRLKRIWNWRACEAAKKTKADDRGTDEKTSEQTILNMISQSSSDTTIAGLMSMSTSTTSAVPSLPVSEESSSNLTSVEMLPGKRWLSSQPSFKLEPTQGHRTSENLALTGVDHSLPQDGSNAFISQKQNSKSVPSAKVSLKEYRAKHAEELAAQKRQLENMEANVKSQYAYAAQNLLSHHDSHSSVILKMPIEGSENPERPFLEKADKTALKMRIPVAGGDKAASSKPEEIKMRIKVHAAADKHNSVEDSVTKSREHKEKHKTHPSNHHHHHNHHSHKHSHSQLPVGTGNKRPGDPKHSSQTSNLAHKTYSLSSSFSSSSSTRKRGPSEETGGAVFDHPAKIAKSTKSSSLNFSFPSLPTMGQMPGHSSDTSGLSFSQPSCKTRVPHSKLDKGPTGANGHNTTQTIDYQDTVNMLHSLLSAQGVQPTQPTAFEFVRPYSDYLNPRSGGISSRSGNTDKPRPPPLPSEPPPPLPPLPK
Nature of the assay: In vitro CDK9/CyclinT assay (IMAP fluorescence polarization kinase assay). It counts as biochemical.
Details: not given
The method, then: In Vitro CDK9/CyclinT Assay
The activity of the compounds described in the present invention can be determined by the following kinase assay, which measures the phosphorylation of a fluorescently-labeled peptide by human CDK9/CyclinT kinase complex by fluorescent polarization using a commercially available IMAP Screening Express Assay Kit (Molecular devices).
CDK9 kinase assays were performed in low protein binding 384-well plates (Corning 3676). Test compounds were diluted in 100% DMSO to 5 mM stock concentration, then further dilutions were made in H2O or 100% DMSO to desirable concentrations.
Each reaction consisted of 5 nM enzyme: CDK9/CyclinT (Proqinase cat#0371-0345-1), 400 nM TAMRA-Rbtide (synthetic 15-mer peptide derived from human retinoblastoma tumor suppressor protein labelled with TAMRA dye, Genecust Europe), 12 μM ATP (=Kmapp, Sigma-Aldrich) and kinase buffer: 20 mM MOPS pH 7 (Sigma-Aldrich), 1 mM DTT (Sigma-Aldrich), 10 mM MgCl2 (Sigma-Aldrich), 0.01% Tween 20 (Sigma-Aldrich).
For each reaction, 4 or 6 μl containing TAMRA-Rbtide, ATP and kianse buffer were combined with 2 μl diluted compound in H2O or 0.028 μl compound in 100% DMSO. The kinase reaction was started by the addition of 2 μl diluted enzyme. The reaction was allowed to run for 1 hours at room temperature. The reaction was stopped by adding 15 μl IMAP beads (1:400 beads in progressive (100% buffer A) 1× buffer). After an additional 1 hours, fluorescent polarization (Ex: 550-10 nm, Em: 590-10 nm, Dich: 561 nm) was measured using an Analyst GT (Molecular devices).
On to `CCCOc1ccccc1-c1cc(Nc2ccc(CNS(C)(=O)=O)cc2)ncn1` [Example 53, N-{4-[6-(2-Propoxy-phenyl)-pyrimidin-4-ylamino]-benzyl}-methanesulfonamide], for which the CDK9 inhibitory effect entry is “nanomolar or low nanomolar range”.
Regarding `COc1cccc(F)c1-c1cc(Nc2cccc(CNS(C)(=O)=O)c2)ncn1` [Example 13, N-{3-[6-(2-Fluoro-6-methoxy-phenyl)-pyrimidin-4-ylamino]-benzyl}-methanesulfonamide], the CDK9 inhibitory effect entry is listed as “nanomolar or low nanomolar range”.
With `COc1cc(F)ccc1-c1cc(Nc2cccc(CNS(C)(=O)=O)c2)ncn1` [Example 7, N-{3-[6-(4-Fluoro-2-methoxy-phenyl)-pyrimidin-4-ylamino]-benzyl}-methanesulfonamide], the CDK9 inhibitory effect result was “nanomolar or low nanomolar range”.
As for `CC(C)Oc1cc(F)ccc1-c1cc(Nc2ccc(CNS(C)(=O)=O)cc2)ncn1` [Example 48, N-{4-[6-(4-Fluoro-2-isopropoxy-phenyl)-pyrimidin-4-ylamino]-benzyl}-methanesulfonamide], the CDK9 inhibitory effect result is “nanomolar or low nanomolar range”.
Same read-out and setting: the result for `COc1ccccc1-c1cc(Nc2cccc(Cn3cnc4ccccc43)c2)ncn1` [Example 64, (3-Benzoimidazol-1-ylmethyl-phenyl)-[6-(2-methoxy-phenyl)-pyrimidin-4-yl]-amine] reads “nanomolar or low nanomolar range”.

Staying with this assay, now noted: 5 nM CDK9/CyclinT, 400 nM TAMRA-Rbtide, 12 μM ATP, 1 hour at room temperature; read-out: CDK9 inhibitory range.
Turning to `COc1cccc(-c2cc(Nc3cccc(CNS(C)(=O)=O)c3)ncn2)c1OC` [Example 23, N-{3-[6-(2,3-Dimethoxy-phenyl)-pyrimidin-4-ylamino]-benzyl}-methanesulfonamide], the pIC50 is greater than 6.00.
Take `CS(=O)(=O)NCc1cccc(Nc2cc(-c3ccccc3F)ncn2)c1` [Example 16, N-{3-[6-(2-Fluoro-phenyl)-pyrimidin-4-ylamino]-benzyl}-methanesulfonamide]: the pIC50 was greater than 5.00.
The same measure, in the same setting: the result for `Clc1cc(Nc2ccc(Cn3cnc4ccccc43)cc2)ncn1` [Example 86, (4-Benzoimidazol-1-ylmethyl-phenyl)-(6-chloro-pyrimidin-4-yl)-amine] reads less than 5.00.
With `CS(=O)(=O)NCc1cccc(Nc2cc(-c3ccc(F)cc3F)ncn2)c1` [Example 17, N-{3-[6-(2,4-Difluoro-phenyl)-pyrimidin-4-ylamino]-benzyl}-methanesulfonamide], the pIC50 is greater than 5.00.
Take `CC(C)Oc1cc(F)ccc1-c1cc(Nc2cccc(CNc3nc4ccccc4[nH]3)c2)ncn1` [Example 77, (1H-Benzoimidazol-2-yl)-{3-[6-(4-fluoro-2-isopropoxy-phenyl)-pyrimidin-4-ylamino]-benzyl}-amine]: the pIC50 was greater than 7.00.
Regarding `Cc1ccccc1-c1cc(Nc2cccc(CNS(C)(=O)=O)c2)ncn1` [Example 11, N-[3-(6-o-Tolyl-pyrimidin-4-ylamino)-benzyl]-methanesulfonamide], the pIC50 is greater than 5.00.
Consider `CC(C)Oc1ccccc1-c1cc(Nc2cccc(CNS(C)(=O)=O)c2)ncn1` [Example 8, N-{3-[6-(2-Isopropoxy-phenyl)-pyrimidin-4-ylamino]-benzyl}-methanesulfonamide], for which the pIC50 was greater than 6.00.
As for `CS(=O)(=O)NCc1ccc(Nc2cc(-c3ccccc3OCc3cccc(F)c3)ncn2)cc1` [Example 49, N-(4-{6-[2-(3-Fluoro-benzyloxy)-phenyl]-pyrimidin-4-ylamino}-benzyl)-methanesulfonamide], the pIC50 is greater than 6.00.
Still for that read-out and setting: the value for `Oc1cccc(-c2cc(Nc3cccc(Cn4cnc5ccccc54)c3)ncn2)c1` [Example 83, 3-[6-(3-Benzoimidazol-1-ylmethyl-phenylamino)-pyrimidin-4-yl]-phenol] was greater than 5.00; that for `COc1ccc(F)cc1-c1cc(Nc2cccc(CNS(C)(=O)=O)c2)ncn1` [Example 9, N-{3-[6-(5-Fluoro-2-methoxy-phenyl)-pyrimidin-4-ylamino]-benzyl}-methanesulfonamide] was greater than 6.00.
Consider `CCCOc1ccccc1-c1cc(Nc2ccc(CNS(C)(=O)=O)cc2)ncn1` [Example 53, N-{4-[6-(2-Propoxy-phenyl)-pyrimidin-4-ylamino]-benzyl}-methanesulfonamide], for which the pIC50 was greater than 7.00.
Consider `Oc1ccc(-c2cc(Nc3ccc(Cn4cnc5ccccc54)cc3)ncn2)cc1` [Example 89, 4-[6-(4-Benzoimidazol-1-ylmethyl-phenylamino)-pyrimidin-4-yl]-phenol], for which the pIC50 was greater than 6.00.
`COc1ccc(F)cc1-c1cc(Nc2ccc(CNS(C)(=O)=O)cc2)ncn1` [Example 38, N-{4-[6-(5-Fluoro-2-methoxy-phenyl)-pyrimidin-4-ylamino]-benzyl}-methanesulfonamide]: the pIC50 is greater than 6.00.
With `CCCOc1ccccc1-c1cc(Nc2cccc(CNS(C)(=O)=O)c2)ncn1` [Example 31, N-{3-[6-(2-Propoxy-phenyl)-pyrimidin-4-ylamino]-benzyl}-methanesulfonamide], the pIC50 was greater than 6.00.
On to `CS(=O)(=O)NCc1ccc(Nc2cc(-c3cn[nH]c3)ncn2)cc1` [Example 58, N-{4-[6-(1H-Pyrazol-4-yl)-pyrimidin-4-ylamino]-benzyl}-methanesulfonamide], for which the pIC50 is less than 5.00.
On to `COc1cccc(F)c1-c1cc(Nc2cccc(CNS(C)(=O)=O)c2)ncn1` [Example 13, N-{3-[6-(2-Fluoro-6-methoxy-phenyl)-pyrimidin-4-ylamino]-benzyl}-methanesulfonamide], for which the pIC50 is greater than 7.00.
`CSc1ccccc1-c1cc(Nc2cccc(CNS(C)(=O)=O)c2)ncn1` [Example 28, N-{3-[6-(2-Methylsulfanyl-phenyl)-pyrimidin-4-ylamino]-benzyl}-methanesulfonamide]: the pIC50 is greater than 6.00.
As to `Clc1cc(Nc2cccc(Cn3cnc4ccccc43)c2)ncn1` [Example 63, (3-Benzoimidazol-1-ylmethyl-phenyl)-(6-chloro-pyrimidin-4-yl)-amine], the pIC50 was greater than 5.00.
As to `COc1ccc(C)cc1-c1cc(Nc2cccc(CNS(C)(=O)=O)c2)ncn1` [Example 26, N-{3-[6-(2-Methoxy-5-methyl-phenyl)-pyrimidin-4-ylamino]-benzyl}-methanesulfonamide], the pIC50 was greater than 5.00.
Still for that read-out and setting: the value for `CS(=O)(=O)NCc1cccc(Nc2cc(Cl)ncn2)c1` [Example 1, N-[3-(6-Chloro-pyrimidin-4-ylamino)-benzyl]-methanesulfonamide] was less than 5.00.
In the case of `COc1ccc(-c2cc(Nc3cccc(CNS(C)(=O)=O)c3)ncn2)c(OC)c1` [Example 24, N-{3-[6-(2,4-Dimethoxy-phenyl)-pyrimidin-4-ylamino]-benzyl}-methanesulfonamide], the pIC50 is greater than 6.00.
As to `COc1cc(F)ccc1-c1cc(Nc2cccc(CNS(C)(=O)=O)c2)ncn1` [Example 7, N-{3-[6-(4-Fluoro-2-methoxy-phenyl)-pyrimidin-4-ylamino]-benzyl}-methanesulfonamide], the pIC50 was greater than 7.00.
Consider `Oc1ccc(-c2cc(Nc3cccc(CNc4nc5ccccc5[nH]4)c3)ncn2)cc1` [Example 78, 4-(6-{3-[(1H-Benzoimidazol-2-ylamino)-methyl]-phenylamino}-pyrimidin-4-yl)-phenol], for which the pIC50 was greater than 6.00.
With `CS(=O)(=O)NCc1cccc(Nc2cc(-c3cccc4c3OCO4)ncn2)c1` [Example 27, N-[3-(6-Benzo[1,3]dioxol-4-yl-pyrimidin-4-ylamino)-benzyl]-methanesulfonamide], the pIC50 is greater than 6.00.
On to `COc1cc(F)ccc1-c1cc(Nc2cccc(Cn3c(CN4CCOCC4)nc4ccccc43)c2)ncn1` [Example 94, [6-(4-Fluoro-2-methoxy-phenyl)-pyrimidin-4-yl]-[3-(2-morpholin-4-ylmethyl-benzoimidazol-1-ylmethyl)-phenyl]-amine], for which the pIC50 is greater than 5.00.
Same read-out and setting: the value for `CC(C)Oc1cc(F)ccc1-c1cc(Nc2ccc(CNS(C)(=O)=O)cc2)ncn1` [Example 48, N-{4-[6-(4-Fluoro-2-isopropoxy-phenyl)-pyrimidin-4-ylamino]-benzyl}-methanesulfonamide] was greater than 7.00; that for `CS(=O)(=O)NCc1ccc(Nc2cc(-c3ccccc3OCc3ccc(F)cc3)ncn2)cc1` [Example 36, N-(4-{6-[2-(4-Fluoro-benzyloxy)-phenyl]-pyrimidin-4-ylamino}-benzyl)-methanesulfonamide] was greater than 6.00; that for `CS(=O)(=O)NCc1cccc(Nc2cc(-c3cn[nH]c3)ncn2)c1` [Example 32, N-{3-[6-(1H-Pyrazol-4-yl)-pyrimidin-4-ylamino]-benzyl}-methanesulfonamide] was greater than 6.00.
Take `O=C1c2ccccc2C(=O)N1Cc1cccc(Nc2cc(Cl)ncn2)c1` [Example 67, 2-[3-(6-Chloro-pyrimidin-4-ylamino)-benzyl]-isoindole-1,3-dione]: the pIC50 was less than 5.00.
As for `COc1ccccc1-c1cc(Nc2cccc(CNS(=O)(=O)c3c(Cl)cccc3Cl)c2)ncn1` [Example 70, 2,6-Dichloro-N-{3-[6-(2-methoxy-phenyl)-pyrimidin-4-ylamino]-benzyl}-benzenesulfonamide], the pIC50 is greater than 6.00.
Take `CS(=O)(=O)NCc1cccc(Nc2cc(-c3ccccc3)ncn2)c1` [Example 21, N-[3-(6-Phenyl-pyrimidin-4-ylamino)-benzyl]-methanesulfonamide]: the pIC50 was greater than 5.00.
Same read-out and setting: the value for `COc1ccccc1-c1cc(Nc2cccc(Cn3cnc4ccccc43)c2)ncn1` [Example 64, (3-Benzoimidazol-1-ylmethyl-phenyl)-[6-(2-methoxy-phenyl)-pyrimidin-4-yl]-amine] was greater than 7.00.
On to `COc1ccc(-c2cc(Nc3ccc(CNS(C)(=O)=O)cc3)ncn2)cc1` [Example 57, N-{4-[6-(4-Methoxy-phenyl)-pyrimidin-4-ylamino]-benzyl}-methanesulfonamide], for which the pIC50 is greater than 6.00.
Turning to `COc1ccc(-c2cc(Nc3cccc(CNS(C)(=O)=O)c3)ncn2)cc1` [Example 19, N-{3-[6-(4-Methoxy-phenyl)-pyrimidin-4-ylamino]-benzyl}-methanesulfonamide], the pIC50 was greater than 5.00.
